The values below come from ChEMBL document CHEMBL1148047, “Two steroidal alkaloids from a sponge, Corticium sp” (J Nat Prod, 1994).

≈ marks a conversion by molar mass, not a printed value. Where only a bound is given, the exact number is not on record here.

The test system of one test is SK-MEL-28. Nature of the test: Cytotoxicity against human SK-MEL-28 cells. Format: functional, cell-based.
The next test deals with Bacillus subtilis. Nature of the test: Antimicrobial activity against Bacillus subtilis at 50 ug/disk. The test is classed as functional. The settings on record: read-out: IZ.
Test [1] relates to Lymphocyte. Nature of the test: Immunomodulatory activity against lymphocytes by lymphocyte viability assay. The test is classed as functional.
The test system of another test is A549. Nature of the test: Cytotoxicity against human A549 cells. The test is classed as functional, cell-based.
The next test deals with Candida albicans. Nature of the test: Antimicrobial activity against Candida albicans at 50 ug/disk. Format: functional. The note with it: read-out: IZ.
The test system of the next test is HT-29. Nature of the test: Cytotoxicity against human HT-29 cells. Format: functional, cell-based.
A further test relates to P388. Nature of the test: Cytotoxicity against mouse P388 cells. The test is classed as functional, cell-based.
For test [2], the system named is Lymphocyte. Nature of the test: Immunomodulatory activity against lymphocytes by mixed lymphocyte reaction method. The test is classed as functional.
For test [3], the system named is Lymphocyte. Nature of the test: Ratio of immunomodulatory activity against lymphocytes by lymphocyte viability assay to immunomodulatory activity against lymphocytes by mixed lymphocyte reaction method. The test is classed as functional.

Turning to `CC(=O)N[C@H]1CC[C@]2(C)[C@H]3CC[C@]4(C)[C@@H]([C@H](C)CC5=NCCC5=C(C)C)CC[C@H]4C3=CC[C@H]2[C@H]1O` [LOKYSTEROLAMINE B], the IC50 (in general, the point on the concentration scale where inhibition reaches its midpoint) in the test on SK-MEL-28 was greater than 2 µg/mL; with A549, 0.5 µg/mL (≈ 1.04 µM); in the test with HT-29 it was 1 µg/mL (≈ 2.08 µM); with P388, 1 µg/mL (≈ 2.08 µM). Besides, the zone of inhibition at 50 µg/disc was 8 mm in the test on Bacillus subtilis and 0 mm in the test with Candida albicans. Also, the Activity in the test with Lymphocyte [1] is given as greater than 12.5; with Lymphocyte [2], 0.48.

Regarding `CC(C)=C1CCN=C1C[C@@H](C)[C@H]1CC[C@H]2C3=CC[C@H]4[C@@H](O)[C@@H](N(C)C)CC[C@]4(C)[C@H]3CC[C@]12C` [LOKYSTEROLAMINE A], the IC50 in the test on SK-MEL-28 was 5 µg/mL (≈ 10.7 µM); in the test with A549 it was 0.5 µg/mL (≈ 1.07 µM); in the test with HT-29 it was 1 µg/mL (≈ 2.14 µM); in the test with P388 it was 0.5 µg/mL (≈ 1.07 µM). In addition, the zone of inhibition at 50 µg/disc in the test on Bacillus subtilis amounted to 19 mm; with Candida albicans it was 11 mm. Also, the Activity in the test on Lymphocyte [1] is listed as greater than 25; with Lymphocyte [2], 0.13. Moreover, the “Ratio IC50” value in the test on Lymphocyte [3] is on record as greater than 187.
